# Measured values: article PMC6445123 (Scientific Reports, 2019)
# Molecular target: T1, recombinant active Casp6 (Homo sapiens, UniProt P55212, INS179NQTEKLDTNITEVD)
# T1 construct: generating mainly large subunit with a linker (LS-L), small subunit (SS), and a minor amount of large subunit (LS); His (C); made in house; host or cells: E. coli BL21(DE3)pLysS
# T1 sequence (P55212 24-193 limits assumed): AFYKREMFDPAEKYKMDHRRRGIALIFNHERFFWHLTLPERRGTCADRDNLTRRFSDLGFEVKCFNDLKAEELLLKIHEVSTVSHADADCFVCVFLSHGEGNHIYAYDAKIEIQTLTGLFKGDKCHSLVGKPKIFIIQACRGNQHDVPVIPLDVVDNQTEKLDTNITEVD
# T1 sequence (P55212 194-293 limits assumed): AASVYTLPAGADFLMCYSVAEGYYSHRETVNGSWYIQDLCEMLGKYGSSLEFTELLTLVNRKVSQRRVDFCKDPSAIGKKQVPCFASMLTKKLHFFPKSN
# Assay: Colorimetric Ac-VEID-pNA cleavage assay
# Type: biochemical
# Details: 100 µM compound, 200 µM Ac-VEID-pNA, 200 nM Casp6
# Procedure: To assess the potency of in silico hits, a fluorescence-based Ac-VEID-AFC cleavage assay was used to measure recombinant active Casp6 reaction rate in the absence or presence of 100 µM concentration of compounds. A 30% inhibition cut off was arbitrarily chosen for further investigation of putative inhibitors. […] AFC signal interference by compound intrinsic fluorescence was ruled out (Fig. S4). Casp6 inhibition was confirmed for seven compounds (C7, C13, C14, S2, S10, S11 and S13) using a colorimetric Ac-VEID-pNA cleavage assay (Table 2, Fig. S3).
# In fluorescence-based Casp6 activity assay, 10 µM Ac-VEID-AFC was added to 20 nM Casp6 in SB with 100 μM compound and 1% dimethyl sulfoxide (DMSO), and reaction rate was measured for 20 min at 37 °C as above. Compound potency was calculated by normalising Ac-VEID-AFC cleavage rate to 1% DMSO control. In colorimetric Casp6 activity assay, 200 µM Ac-VEID-pNA (N-acetyl-Val-Glu-Ile-Asp-p-nitroanilide, Enzo Life Sciences) was added to 200 nM Casp6 in SB with 100 μM compound, and Ac-VEID-pNA cleavage rate was measured at 37 °C for 30 min in clear 96-well plate (Sartstedt, Nümbrecht, Germany) using Synergy H4 plate reader at 405 nm. Absorbance was converted to the released pNA amount based on a standard curve of 0–250 µM pNA. Cleavage rates were calculated from the linear assay phase and were normalised to 1% DMSO control. In Casp6-C163A cleavage assay, 0.5 ng/µl Casp6-WT was preincubated with 100 µM inhibitor, 5 µM Q-VD-OPh or 1% DMSO in SB (30 min, RT), followed by transfer on ice, addition of 0.5 µg/µl Casp6-C163A, and incubation (37 °C, 5, 10 and 15 min). Reactions were stopped by adding SDS-PAGE sample buffer (62.5 mM Tris pH 6.8, 2% SDS, 0.1 M DTT, 0.01% Bromphenol Blue, 10% glycerol) and heating (5 min, 95 °C). Samples (2 µl) were analysed on 15% SDS-PAGE gels, proteins were stained with Coomassie blue, and gels were de-stained with 10% acetic acid. The intensities of protein bands were quantified from scanned gels using ImageJ. The band intensity of Casp6-C163A without a prodomain was plotted against the time and the Casp6-C163A cleavage rates were calculated from the slopes of linear plots. The % activity of Casp6-WT in the presence of inhibitors was calculated relative to DMSO control.
smiles,measurement,value
COC(=O)c1cc(CNC(=O)C2Cc3ccccc3O2)cc(NC(=O)c2ccco2)c1 (stereo not shown) [Compound C13],inhibition at 100 µM,86.7%
